From the supplement of paper PMC6045584
± gives the standard deviation of the averaged measurements.

Assays:
CABOZANTINIB = compound: COc1cc2nccc(Oc3ccc(NC(=O)C4(C(=O)Nc5ccc(F)cc5)CC4)cc3)c2cc1OC [CABOZANTINIB]; experiment: surviving fraction relative to DMSO-only wells; higher = less growth inhibition; conditions: exposure time: 5 days
Summary of the method: (§1)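 Surviving fraction is CellTiter-Glo luminescence divided by the median of wells given DMSO only. For this, log-phase tumour cell lines went into 384-well plates at 250–500 cells per well and, 24 hours later, into five days of continuous inhibitor exposure at 0.5, 1, 5, 10, 50, 100, 500 and 1000 nM. Lines were screened three times and retained only if replicate Pearson r >0.7 and median Z' >0.3.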

LENVATINIB = compound: COc1cc2nccc(Oc3ccc(NC(=O)NC4CC4)c(Cl)c3)c2cc1C(N)=O [LENVATINIB]; experiment: as above; conditions: exposure time: 5 days
Summary of the method: as §1

SCC47 HEADNECK
surviving fraction (CABOZANTINIB; 0.5 nM): 0.891 ± 0.022 | surviving fraction (CABOZANTINIB; 1 nM): 0.894 ± 0.019 | surviving fraction (CABOZANTINIB; 5 nM): 1.06 ± 0.062 | surviving fraction (CABOZANTINIB; 10 nM): 1.03 ± 0.16 | surviving fraction (CABOZANTINIB; 50 nM): 1.05 ± 0.14 | surviving fraction (CABOZANTINIB; 100 nM): 1.08 ± 0.069 | surviving fraction (CABOZANTINIB; 500 nM): 0.844 ± 0.025 | surviving fraction (CABOZANTINIB; 1000 nM): 0.922 ± 0.041 | surviving fraction (LENVATINIB; 0.5 nM): 1.11 ± 0.068 | surviving fraction (LENVATINIB; 1 nM): 1.02 ± 0.012 | surviving fraction (LENVATINIB; 5 nM): 1.14 ± 0.021 | surviving fraction (LENVATINIB; 10 nM): 1.14 ± 0.1 | surviving fraction (LENVATINIB; 50 nM): 1.06 ± 0.024 | surviving fraction (LENVATINIB; 100 nM): 1.11 ± 0.15 | surviving fraction (LENVATINIB; 500 nM): 1.12 ± 0.081 | surviving fraction (LENVATINIB; 1000 nM): 1.08 ± 0.069

LM7 BONE
surviving fraction (CABOZANTINIB; 0.5 nM): 1.03 ± 0.091 | surviving fraction (CABOZANTINIB; 1 nM): 0.998 ± 0.039 | surviving fraction (CABOZANTINIB; 5 nM): 1.07 ± 0.035 | surviving fraction (CABOZANTINIB; 10 nM): 1.04 ± 0.053 | surviving fraction (CABOZANTINIB; 50 nM): 1.06 ± 0.11 | surviving fraction (CABOZANTINIB; 100 nM): 1.09 ± 0.019 | surviving fraction (CABOZANTINIB; 500 nM): 0.932 ± 0.015 | surviving fraction (CABOZANTINIB; 1000 nM): 0.889 ± 0.036 | surviving fraction (LENVATINIB; 0.5 nM): 0.974 ± 0.11 | surviving fraction (LENVATINIB; 1 nM): 0.951 ± 0.066 | surviving fraction (LENVATINIB; 5 nM): 1.03 ± 0.074 | surviving fraction (LENVATINIB; 10 nM): 0.973 ± 0.086 | surviving fraction (LENVATINIB; 50 nM): 1.07 ± 0.12 | surviving fraction (LENVATINIB; 100 nM): 1.03 ± 0.041 | surviving fraction (LENVATINIB; 500 nM): 0.939 ± 0.022 | surviving fraction (LENVATINIB; 1000 nM): 0.952 ± 0.11

BT549 BREAST
surviving fraction (CABOZANTINIB; 0.5 nM): 1.05 ± 0.047 | surviving fraction (CABOZANTINIB; 1 nM): 1.02 ± 0.024 | surviving fraction (CABOZANTINIB; 5 nM): 1.07 ± 0.034 | surviving fraction (CABOZANTINIB; 10 nM): 1.02 ± 0.2 | surviving fraction (CABOZANTINIB; 50 nM): 1.22 ± 0.017 | surviving fraction (CABOZANTINIB; 100 nM): 1.13 ± 0.16 | surviving fraction (CABOZANTINIB; 500 nM): 1.12 ± 0.18 | surviving fraction (CABOZANTINIB; 1000 nM): 1.16 ± 0.14 | surviving fraction (LENVATINIB; 0.5 nM): 1.1 ± 0.043 | surviving fraction (LENVATINIB; 1 nM): 1.16 ± 0.27 | surviving fraction (LENVATINIB; 5 nM): 1.24 ± 0.031 | surviving fraction (LENVATINIB; 10 nM): 1.11 ± 0.26 | surviving fraction (LENVATINIB; 50 nM): 1.04 ± 0.15 | surviving fraction (LENVATINIB; 100 nM): 1.15 ± 0.056 | surviving fraction (LENVATINIB; 500 nM): 1.11 ± 0.087 | surviving fraction (LENVATINIB; 1000 nM): 1.06 ± 0.11

CME SYNOVIAL
surviving fraction (CABOZANTINIB; 0.5 nM): 1.23 ± 0.11 | surviving fraction (CABOZANTINIB; 1 nM): 1.24 ± 0.16 | surviving fraction (CABOZANTINIB; 5 nM): 1.24 ± 0.11 | surviving fraction (CABOZANTINIB; 10 nM): 1.21 ± 0.042 | surviving fraction (CABOZANTINIB; 50 nM): 1.2 ± 0.046 | surviving fraction (CABOZANTINIB; 100 nM): 1.19 ± 0.15 | surviving fraction (CABOZANTINIB; 500 nM): 1.1 ± 0.071 | surviving fraction (CABOZANTINIB; 1000 nM): 1.01 ± 0.12 | surviving fraction (LENVATINIB; 0.5 nM): 1.28 ± 0.14 | surviving fraction (LENVATINIB; 1 nM): 1.25 ± 0.12 | surviving fraction (LENVATINIB; 5 nM): 1.18 ± 0.092 | surviving fraction (LENVATINIB; 10 nM): 1.17 ± 0.3 | surviving fraction (LENVATINIB; 50 nM): 1.22 ± 0.076 | surviving fraction (LENVATINIB; 100 nM): 1.1 ± 0.038 | surviving fraction (LENVATINIB; 500 nM): 0.847 ± 0.074 | surviving fraction (LENVATINIB; 1000 nM): 0.91 ± 0.029

93VU HEADNECK
surviving fraction (CABOZANTINIB; 0.5 nM): 0.824 ± 0.084 | surviving fraction (CABOZANTINIB; 1 nM): 0.841 ± 0.026 | surviving fraction (CABOZANTINIB; 5 nM): 0.916 ± 0.028 | surviving fraction (CABOZANTINIB; 10 nM): 1.01 ± 0.14 | surviving fraction (CABOZANTINIB; 50 nM): 1.02 ± 0.084 | surviving fraction (CABOZANTINIB; 100 nM): 0.967 ± 0.05 | surviving fraction (CABOZANTINIB; 500 nM): 0.777 ± 0.042 | surviving fraction (CABOZANTINIB; 1000 nM): 0.71 ± 0.051 | surviving fraction (LENVATINIB; 0.5 nM): 1.05 ± 0.044 | surviving fraction (LENVATINIB; 1 nM): 1.11 ± 0.074 | surviving fraction (LENVATINIB; 5 nM): 1.09 ± 0.12 | surviving fraction (LENVATINIB; 10 nM): 1.167 ± 0.0038 | surviving fraction (LENVATINIB; 50 nM): 1.18 ± 0.087 | surviving fraction (LENVATINIB; 100 nM): 1.19 ± 0.086 | surviving fraction (LENVATINIB; 500 nM): 0.99 ± 0.036 | surviving fraction (LENVATINIB; 1000 nM): 1.11 ± 0.024

NY BONE
surviving fraction (CABOZANTINIB; 0.5 nM): 0.9253 ± 0.009 | surviving fraction (CABOZANTINIB; 1 nM): 0.98 ± 0.036 | surviving fraction (CABOZANTINIB; 5 nM): 1.02 ± 0.016 | surviving fraction (CABOZANTINIB; 10 nM): 0.989 ± 0.024 | surviving fraction (CABOZANTINIB; 50 nM): 0.9377 ± 0.0067 | surviving fraction (CABOZANTINIB; 100 nM): 0.887 ± 0.011 | surviving fraction (CABOZANTINIB; 500 nM): 0.784 ± 0.022 | surviving fraction (CABOZANTINIB; 1000 nM): 0.768 ± 0.026 | surviving fraction (LENVATINIB; 0.5 nM): 1.01 ± 0.073 | surviving fraction (LENVATINIB; 1 nM): 1.04 ± 0.048 | surviving fraction (LENVATINIB; 5 nM): 1.05 ± 0.048 | surviving fraction (LENVATINIB; 10 nM): 1.02 ± 0.065 | surviving fraction (LENVATINIB; 50 nM): 1.04 ± 0.045 | surviving fraction (LENVATINIB; 100 nM): 1.05 ± 0.018 | surviving fraction (LENVATINIB; 500 nM): 0.869 ± 0.023 | surviving fraction (LENVATINIB; 1000 nM): 0.674 ± 0.007

SUM149 BREAST
surviving fraction (CABOZANTINIB; 0.5 nM): 1.03 ± 0.054 | surviving fraction (CABOZANTINIB; 1 nM): 0.979 ± 0.19 | surviving fraction (CABOZANTINIB; 5 nM): 0.912 ± 0.061 | surviving fraction (CABOZANTINIB; 10 nM): 0.997 ± 0.021 | surviving fraction (CABOZANTINIB; 50 nM): 0.987 ± 0.12 | surviving fraction (CABOZANTINIB; 100 nM): 0.96 ± 0.084 | surviving fraction (CABOZANTINIB; 500 nM): 0.91 ± 0.15 | surviving fraction (CABOZANTINIB; 1000 nM): 0.924 ± 0.091 | surviving fraction (LENVATINIB; 0.5 nM): 1.07 ± 0.12 | surviving fraction (LENVATINIB; 1 nM): 1.04 ± 0.061 | surviving fraction (LENVATINIB; 5 nM): 1.05 ± 0.025 | surviving fraction (LENVATINIB; 10 nM): 1.02 ± 0.16 | surviving fraction (LENVATINIB; 50 nM): 1.04 ± 0.076 | surviving fraction (LENVATINIB; 100 nM): 1.01 ± 0.066 | surviving fraction (LENVATINIB; 500 nM): 0.992 ± 0.06 | surviving fraction (LENVATINIB; 1000 nM): 0.965 ± 0.084

SCC90 HEADNECK
surviving fraction (CABOZANTINIB; 0.5 nM): 0.858 ± 0.053 | surviving fraction (CABOZANTINIB; 1 nM): 0.819 ± 0.089 | surviving fraction (CABOZANTINIB; 5 nM): 0.9093 ± 0.0042 | surviving fraction (CABOZANTINIB; 10 nM): 0.997 ± 0.086 | surviving fraction (CABOZANTINIB; 50 nM): 1.09 ± 0.17 | surviving fraction (CABOZANTINIB; 100 nM): 1.05 ± 0.15 | surviving fraction (CABOZANTINIB; 500 nM): 0.852 ± 0.081 | surviving fraction (CABOZANTINIB; 1000 nM): 0.874 ± 0.087 | surviving fraction (LENVATINIB; 0.5 nM): 1.12 ± 0.056 | surviving fraction (LENVATINIB; 1 nM): 1.12 ± 0.071 | surviving fraction (LENVATINIB; 5 nM): 1.15 ± 0.13 | surviving fraction (LENVATINIB; 10 nM): 1.22 ± 0.093 | surviving fraction (LENVATINIB; 50 nM): 1.18 ± 0.098 | surviving fraction (LENVATINIB; 100 nM): 1.17 ± 0.048 | surviving fraction (LENVATINIB; 500 nM): 1.21 ± 0.085 | surviving fraction (LENVATINIB; 1000 nM): 1.3 ± 0.074

S68 BREAST
surviving fraction (CABOZANTINIB; 0.5 nM): 1.05 ± 0.1 | surviving fraction (CABOZANTINIB; 1 nM): 0.948 ± 0.075 | surviving fraction (CABOZANTINIB; 5 nM): 0.937 ± 0.071 | surviving fraction (CABOZANTINIB; 10 nM): 1.32 ± 0.15 | surviving fraction (CABOZANTINIB; 50 nM): 1.2 ± 0.23 | surviving fraction (CABOZANTINIB; 100 nM): 1.24 ± 0.41 | surviving fraction (CABOZANTINIB; 500 nM): 0.986 ± 0.24 | surviving fraction (CABOZANTINIB; 1000 nM): 0.889 ± 0.23 | surviving fraction (LENVATINIB; 0.5 nM): 0.924 ± 0.35 | surviving fraction (LENVATINIB; 1 nM): 0.961 ± 0.079 | surviving fraction (LENVATINIB; 5 nM): 0.971 ± 0.29 | surviving fraction (LENVATINIB; 10 nM): 1.18 ± 0.2 | surviving fraction (LENVATINIB; 50 nM): 1.09 ± 0.091 | surviving fraction (LENVATINIB; 100 nM): 1.1 ± 0.26 | surviving fraction (LENVATINIB; 500 nM): 0.858 ± 0.34 | surviving fraction (LENVATINIB; 1000 nM): 1.16 ± 0.22

SJSA1 BONE
surviving fraction (CABOZANTINIB; 0.5 nM): 1.47 ± 0.13 | surviving fraction (CABOZANTINIB; 1 nM): 1.63 ± 0.045 | surviving fraction (CABOZANTINIB; 5 nM): 1.56 ± 0.07 | surviving fraction (CABOZANTINIB; 10 nM): 1.75 ± 0.071 | surviving fraction (CABOZANTINIB; 50 nM): 1.627 ± 0.0032 | surviving fraction (CABOZANTINIB; 100 nM): 1.74 ± 0.13 | surviving fraction (CABOZANTINIB; 500 nM): 1.65 ± 0.059 | surviving fraction (CABOZANTINIB; 1000 nM): 1.78 ± 0.089 | surviving fraction (LENVATINIB; 0.5 nM): 1.04 ± 0.034 | surviving fraction (LENVATINIB; 1 nM): 1.02 ± 0.034 | surviving fraction (LENVATINIB; 5 nM): 1.09 ± 0.087 | surviving fraction (LENVATINIB; 10 nM): 1.09 ± 0.051 | surviving fraction (LENVATINIB; 50 nM): 1.15 ± 0.014 | surviving fraction (LENVATINIB; 100 nM): 1.07 ± 0.029 | surviving fraction (LENVATINIB; 500 nM): 1.03 ± 0.022 | surviving fraction (LENVATINIB; 1000 nM): 0.997 ± 0.015
